The text below walks through data of US20240246908A1 (ORION CORPORATION, priority 2021, published 2024).

Broadly, the IC50 is the point on the concentration scale where inhibition reaches its midpoint.

The assay has as its system YAP-TEAD. Kind of assay: TEAD inhibition, Hippo Pathway TEAD Reporter MCF-7 luciferase assay. The note with it: Homo sapiens, MCF7, 24 h, Hippo Pathway TEAD Reporter MCF-7 cells, luciferase activity after 24 h; read-out: IC50 of the test compounds on YAP-TEAD inhibition (Group). In kind it is cell-based. An outline of the steps:
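IC50 derived from ONE-Glo luciferase luminescence after 24 h compound exposure (11 concentrations in quadruplicate, 0.1% DMSO control). Reporter: MCF-7 line expressing firefly luciferase under TEAD elements, constitutively activated by nuclear YAP1.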
In the case of `COc1ccc(Oc2ccc(C(F)(F)F)cc2)cc1NC(=O)[C@@H]1C[C@H](O)C(=O)N1C` [Compound 380, (2S,4S)-4-Hydroxy-N-(2-methoxy-5-(4-(trifluoromethyl)phenoxy)phenyl)-1-methyl-5-oxopyrrolidine-2-carboxamide], the 50% inhibitory concentration (IC50) is 50 to 300 nM.

Turning to `COc1ccc(Oc2ccc(C(F)(F)F)cc2)cc1NC(=O)C1CCS(=N)(=O)CC1` (stereo not drawn) [Compound 381, 1-Imino-N-(2-methoxy-5-(4-(trifluoromethyl)phenoxy)phenyl)-hexahydro-1λ^6-thiopyran-4-carboxamide 1-oxide], the IC50 is 50 to 300 nM.

Regarding `COc1cc(F)c(Oc2ccc(C(F)(F)F)cc2)cc1NC(=O)C1CNC(=O)N1C` (stereo not drawn) [Compound 382, N-(4-Fluoro-2-methoxy-5-(4-(trifluoromethyl)phenoxy)phenyl)-3-methyl-2-oxoimidazolidine-4-carboxamide], the IC50 is under 50 nM.

Regarding `CN1CC(=O)N(C)C(C(=O)Nc2cc(Oc3ccc(C(F)(F)F)cc3)cc3c2OCC3)C1` (stereo not drawn) [Compound 383, 1,4-Dimethyl-6-oxo-N-(5-(4-(trifluoromethyl)phenoxy)-2,3-dihydrobenzofuran-7-yl)piperazine-2-carboxamide], the IC50 lay within 50 to 300 nM.

Consider `COc1ccc(Oc2ccc(Cl)cc2F)cc1NC(=O)C1CCC(=O)N1C` (stereo not drawn) [Compound 385, N-(5-(4-Chloro-2-fluorophenoxy)-2-methoxyphenyl)-1-methyl-5-oxopyrrolidine-2-carboxamide], for which the concentration for half-maximal inhibition (IC50) was under 50 nM.

Take `COc1ccc(NC(=O)C2CCC(=O)N2C)cc1Cc1ccc(C(F)(F)F)cc1` (stereo not drawn) [Compound 387, N-(4-Methoxy-3-(4-(trifluoromethyl)benzyl)phenyl)-1-methyl-5-oxo-pyrrolidine-2-carboxamide]: the IC50 was in the range of 301 to 2000 nM.

As to `COc1ccc(Oc2ccc(C(F)(F)F)cc2)cc1NC(=O)c1coc(=O)[nH]1` [Compound 388, N-(2-Methoxy-5-(4-(trifluoromethyl)phenoxy)phenyl)-2-oxo-2,3-dihydrooxazole-4-carboxamide], the IC50 is 301 to 2000 nM.

As to `COc1ccc(Oc2ccc(F)c(F)c2)c(C)c1NC(=O)C1CCC(=O)N1C` (stereo not drawn) [Compound 389, N-(3-(3,4-Difluorophenoxy)-6-methoxy-2-methylphenyl)-1-methyl-5-oxopyrrolidine-2-carboxamide], the IC50 is 301 to 2000 nM.

Take `COc1ccc(Oc2cccc(C#N)c2)cc1NC(=O)C1CCC(=O)N1C` (stereo not drawn) [Compound 390, N-(5-(3-Cyanophenoxy)-2-methoxyphenyl)-1-methyl-5-oxopyrrolidine-2-carboxamide]: the IC50 is 301 to 2000 nM.

Regarding `COc1ccc(Oc2ccc(C(F)(F)F)c(OC)c2)cc1NC(=O)C1CCC(=O)N1C` (stereo not drawn) [Compound 391, N-(2-Methoxy-5-(3-methoxy-4-(trifluoromethyl)phenoxy)phenyl)-1-methyl-5-oxopyrrolidine-2-carboxamide], the IC50 is under 50 nM.

`COc1ccc(Oc2ccc(C(F)(F)F)cc2)cc1NC(=O)c1nnn[nH]1` [Compound 392, N-(2-Methoxy-5-(4-(trifluoromethyl)phenoxy)phenyl)-1H-tetrazole-5-carboxamide]: the half-inhibitory concentration (IC50) is 301 to 2000 nM.

`COc1ccc(Oc2cc(C(F)(F)F)ccn2)cc1NC(=O)[C@H]1CCC(=O)N1C` [Compound 393, (R)—N-(2-Methoxy-5-((4-(trifluoromethyl)pyridin-2-yl)oxy)phenyl)-1-methyl-5-oxopyrrolidine-2-carboxamide]: the IC50 lay within 301 to 2000 nM.

As for `COc1ccc(Oc2cc(C(F)(F)F)ccn2)cc1NC(=O)[C@@H]1CCC(=O)N1C` [Compound 394, (S)—N-(2-Methoxy-5-((4-(trifluoromethyl)pyridin-2-yl)oxy)phenyl)-1-methyl-5-oxopyrrolidine-2-carboxamide], the IC50 lay in the range of 301 to 2000 nM.

As to `COc1ccc(Oc2ccc(C(F)(F)F)c(F)c2)cc1NC(=O)C1CCC(=O)N1C` (stereo not drawn) [Compound 395], the IC50 was under 50 nM.

For `COc1ccc(Oc2ccc(C#N)c(C(F)(F)F)c2)cc1NC(=O)C1CCC(=O)N1C` (stereo not drawn) [Compound 396, N-(5-(4-Cyano-3-(trifluoromethyl)phenoxy)-2-methoxyphenyl)-1-methyl-5-oxopyrrolidine-2-carboxamide], the concentration for half-maximal inhibition (IC50) was in the range of 50 to 300 nM.

For the compound `COc1ccc(Oc2ccc(F)c(C#N)c2)cc1NC(=O)C1CCC(=O)N1C` (stereo not drawn) [Compound 397, N-(5-(3-Cyano-4-fluorophenoxy)-2-methoxyphenyl)-1-methyl-5-oxopyrrolidine-2-carboxamide], the IC50 was in the range of 301 to 2000 nM.

Take `COc1ccc(Oc2ccc(C(F)(F)F)cc2F)cc1NC(=O)[C@@H]1CCC(=O)N1C` [Compound 398, (S)—N-(5-(2-Fluoro-4-(trifluoromethyl)phenoxy)-2-methoxyphenyl)-1-methyl-5-oxopyrrolidine-2-carboxamide]: the IC50 is under 50 nM.

Take `COc1ccc(Oc2cnc(C(F)(F)F)c(F)c2)cc1NC(=O)C1CCC(=O)N1C` (stereo not drawn) [Compound 399]: the IC50 was under 50 nM.

`COc1ccc(Oc2ccc(C(F)(F)F)c(F)n2)cc1NC(=O)C1CCC(=O)N1C` (stereo not drawn) [Compound 400, N-(5-((6-Fluoro-5-(trifluoromethyl)pyridin-2-yl)oxy)-2-methoxyphenyl)-1-methyl-5-oxopyrrolidine-2-carboxamide]: the half-maximal inhibitory concentration (IC50) was under 50 nM.

As for `COc1ccc(Oc2ccc(C(F)(F)F)c(F)n2)cc1NC(=O)[C@@H]1CCC(=O)N1C` [Compound 401, (S)—N-(5-((6-Fluoro-5-(trifluoromethyl)pyridin-2-yl)oxy)-2-methoxyphenyl)-1-methyl-5-oxopyrrolidine-2-carboxamide], the half-maximal inhibitory concentration (IC50) is under 50 nM.

As to `COc1ccc(Oc2ccc(C(F)(F)F)c(F)n2)cc1NC(=O)[C@H]1CCC(=O)N1C` [Compound 402, (R)—N-(5-((6-Fluoro-5-(trifluoromethyl)pyridin-2-yl)oxy)-2-methoxyphenyl)-1-methyl-5-oxopyrrolidine-2-carboxamide], the IC50 is under 50 nM.

With `COc1ccc(Oc2ccc(C(F)(F)F)cn2)cc1NC(=O)[C@@H]1CCC(=O)N1C` [Compound 403, (S)—N-(2-Methoxy-5-((5-(trifluoromethyl)pyridin-2-yl)oxy)phenyl)-1-methyl-5-oxopyrrolidine-2-carboxamide], the half-maximal inhibitory concentration (IC50) is under 50 nM.

Take `COc1ccc(/C=C/C2CCC(F)(F)CC2)cc1NC(=O)C1CNC(=O)N1` (stereo not drawn) [Compound 404, (E)-N-(5-(2-(4,4-Difluorocyclohexyl)vinyl)-2-methoxyphenyl)-2-oxo-imidazolidine-4-carboxamide]: the IC50 is 50 to 300 nM.

Regarding `CN1C(=O)CC[C@@H]1C(=O)Nc1cc(/C=C/C2CCC(F)(F)CC2)cc2c1OCC2` [Compound 405, (R,E)-N-(5-(2-(4,4-Difluorocyclohexyl)vinyl)-2,3-dihydrobenzofuran-7-yl)-1-methyl-5-oxopyrrolidine-2-carboxamide], the half-maximal inhibitory concentration (IC50) is under 50 nM.

For `CN1C(=O)CC[C@H]1C(=O)Nc1cc(/C=C/C2CCC(F)(F)CC2)cc2c1OCC2` [Compound 406, (S,E)-N-(5-(2-(4,4-Difluorocyclohexyl)vinyl)-2,3-dihydrobenzofuran-7-yl)-1-methyl-5-oxopyrrolidine-2-carboxamide], the concentration for half-maximal inhibition (IC50) was under 50 nM.

Consider `CN1C(=O)NC[C@H]1C(=O)Nc1cc(/C=C/C2CCC(F)(F)CC2)cc2c1OCC2` [Compound 407, (S,E)-N-(5-(2-(4,4-Difluorocyclohexyl)vinyl)-2,3-dihydrobenzofuran-7-yl)-3-methyl-2-oxoimidazolidine-4-carboxamide], for which the IC50 is under 50 nM.

For `COc1ccc(/C=C/C2CCC(F)(F)CC2)cc1NC(=O)C1CN(C)C(=O)N1C` (stereo not drawn) [Compound 408, (E)-N-(5-(2-(4,4-Difluorocyclohexyl)vinyl)-2-methoxyphenyl)-1,3-dimethyl-2-oxoimidazolidine-4-carboxamide], the 50% inhibitory concentration (IC50) lay in the range of 50 to 300 nM.

`CN1C(=O)NC[C@H]1C(=O)Nc1cc(/C=C/C2CCC(F)(F)CC2)cc2c1OCO2` [Compound 409]: the half-inhibitory concentration (IC50) was under 50 nM.

With `COc1cc(Oc2ccc(O)c(NC(=O)C3CCC(=O)N3C)c2)ccc1C(F)(F)F` (stereo not drawn) [Compound 410, N-(2-Hydroxy-5-(3-methoxy-4-(trifluoromethyl)phenoxy)phenyl)-1-methyl-5-oxopyrrolidine-2-carboxamide], the IC50 was in the range of 301 to 2000 nM.

As to `COc1ccc(Oc2ccc(C(F)(F)F)cc2O)cc1NC(=O)C1CCC(=O)N1C` (stereo not drawn) [Compound 411, N-(5-(2-Hydroxy-4-(trifluoromethyl)phenoxy)-2-methoxyphenyl)-1-methyl-5-oxopyrrolidine-2-carboxamide], the IC50 was 301 to 2000 nM.

As for `COc1ccc(Oc2ccc(C(F)(F)F)cc2)cc1NC(=O)C1CCN(C(C)=O)C1` (stereo not drawn) [Compound 412, 1-Acetyl-N-(2-methoxy-5-(4-(trifluoromethyl)phenoxy)phenyl)-pyrrolidine-3-carboxamide], the half-maximal inhibitory concentration (IC50) is 301 to 2000 nM.

In the case of `COc1ccc(Oc2cccc(F)c2)cc1NC(=O)C1CCN(C(C)=O)C1` (stereo not drawn) [Compound 413, 1-Acetyl-N-(5-(3-fluorophenoxy)-2-methoxyphenyl)pyrrolidine-3-carboxamide], the IC50 lay within 301 to 2000 nM.

`COc1ccc(Oc2ccc(C(F)(F)F)cc2)cc1N(C)C(=O)[C@@H]1CCC(=O)N1C` [Compound 417, (S)—N-(2-Methoxy-5-(4-(trifluoromethyl)phenoxy)phenyl)-N,1-dimethyl-5-oxopyrrolidine-2-carboxamide]: the IC50 was in the range of 50 to 300 nM.
